Reference: PMC8912909, “Drug development for the treatment of onchocerciasis: Population pharmacokinetic and adverse events modeling of emodepside” (PLoS Neglected Tropical Diseases, 2022)

Tests used:
[1] = tested on: CYP3A4; conditions: has been shown; no reference given; cited from earlier work
[2] = Safety analysis: drug-related treatment-emergent adverse events (TEAE) in three phase I studies; type: in vivo, human
Description: For a detailed safety analysis for emodepside, based on the entire safety population (pharmacokinetic sample and placebo arms) of the phase I clinical trials the reader is referred to the recently published article by Gillon et al.. In the present study, the safety analysis and exposure–adverse events analysis was performed on all subjects whom were included in the population pharmacokinetic analysis (n = 142), i.e. all subjects who received at least 1 dose of the study drug as LSF solution, ASD-tablet A or ASD-tablet B. Safety was assessed in terms of incidence of a drug-related TEAE (as assessed by the investigator) and reported as Medical Dictionary for Regulatory Activities (MedDRA) code. A TEAE was defined as an event that emerged during treatment and having been absent pretreatment, or that worsened relative to the pretreatment state.

[3] = Population pharmacokinetic model (NONMEM) of pooled phase I plasma and DBS concentrations
[4] = human, in vivo, po; cited from earlier work
Description: Currently, emodepside is under clinical development for the treatment of onchocerciasis, following a repurposing strategy and a collaboration agreement between DNDi and Bayer AG [26]. The safety, pharmacokinetics and relative bioavailability of emodepside after oral dosing in healthy male subjects have been evaluated in three phase I clinical trials, including a First-in-Human study. […] The long terminal half-life (> 20 d ...

[5] = Linear regression of DBS vs. plasma concentrations; parameters: species or system human; conditions: DBS concentration = slope × plasma concentration-0.592; r^2 = 0.987, n = 228
Description: Deuterated emodepside-D16 was used as the internal standard.
Supplementary file pntd.0010219.s008.tif: S1 Fig Linear regression analysis (emodepside DBS vs. plasma concentrations). Observations are represented by black open circles, the black solid line represents the line of identity, and the black dotted line represents the linear regression. DBS concentration = 0.605 × plasma concentration-0.592 (r^2 = 0.987, standard error of estimate, SEE = 5.74, n = 228). (TIF) Click here for additional data file.

[6] = inter-compartmental clearance, oral, 75 kg adult, n = 142
[7] = nonparametric bootstrap, 75 kg adult

CC(C)C[C@H]1C(=O)O[C@H](Cc2ccc(N3CCOCC3)cc2)C(=O)N(C)[C@@H](CC(C)C)C(=O)O[C@H](C)C(=O)N(C)[C@@H](CC(C)C)C(=O)O[C@H](Cc2ccc(N3CCOCC3)cc2)C(=O)N(C)[C@@H](CC(C)C)C(=O)O[C@H](C)C(=O)N1C [emodepside, Emodepside]
Enzyme catalyzing oxidative metabolism [1]: predominantly catalyzed by CYP3A4 | Time to resolution of drug-related TEAEs of interest after onset ([2]; all apart from visual impairment in one subject): ≤ 48 h | Nature and severity of drug-related TEAEs ([2]; all, apart from moderate headaches in two subjects at 40 mg LSF solution): transient in nature and mild in severity | Lag of drug-related TEAE of interest relative to Tmax, most subjects ([2]; in vivo): 0 to 2.5 h | Share of drug-related TEAEs of interest occurring at 1–3 h post-dose ([2]; in vivo): 83% | Time to resolution of visual impairment in one subject ([2]; in vivo): 21 days | Deaths or severe drug-related TEAEs ([2]; n = 142): no deaths or severe drug-related TEAEs reported | Subjects with drug-related TEAEs of interest, % ([2]; n = 142): 19.0% | Abdominal pain, % of subjects with drug-related TEAE ([2]; n = 142, pooled phase I): 0.7% | Balance disorder, % of subjects with drug-related TEAE ([2]; n = 142, pooled phase I): 0.7% | Cough, % of subjects with drug-related TEAE ([2]; n = 142, pooled phase I): 0.7% | Disorientation, % of subjects with drug-related TEAE ([2]; n = 142, pooled phase I): 0.7% | Disturbance in attention, % of subjects with drug-related TEAE ([2]; n = 142, pooled phase I): 0.7% | Euphoric mood, % of subjects with drug-related TEAE ([2]; n = 142, pooled phase I): 1.4% | Eye disorders, % of subjects with drug-related TEAE ([2]; n = 142, pooled phase I): 14.1% | Eye pain, % of subjects with drug-related TEAE ([2]; n = 142, pooled phase I): 0.7% | Feeling of relaxation, % of subjects with drug-related TEAE ([2]; n = 142, pooled phase I): 2.1% | Gastrointestinal disorders, % of subjects with drug-related TEAE ([2]; n = 142, pooled phase I): 2.8% | General disorders and administration site conditions, % of subjects with drug-related TEAE ([2]; n = 142, pooled phase I): 0.7% | Headache, % of subjects with drug-related TEAE ([2]; n = 142, pooled phase I): 4.2% | Hypervigilance, % of subjects with drug-related TEAE ([2]; n = 142, pooled phase I): 0.7% | Muscle spasms, % of subjects with drug-related TEAE ([2]; n = 142, pooled phase I): 0.7% | Musculoskeletal and connective tissue disorders, % of subjects with drug-related TEAE ([2]; n = 142, pooled phase I): 0.7% | Nausea, % of subjects with drug-related TEAE ([2]; n = 142, pooled phase I): 2.1% | Nervous system disorders, % of subjects with drug-related TEAE ([2]; n = 142, pooled phase I): 12.7% | Nervousness, % of subjects with drug-related TEAE ([2]; n = 142, pooled phase I): 0.7% | Oropharyngeal pain, % of subjects with drug-related TEAE ([2]; n = 142, pooled phase I): 0.7% | Paraesthesia oral, % of subjects with drug-related TEAE ([2]; n = 142, pooled phase I): 0.7% | Photophobia, % of subjects with drug-related TEAE ([2]; n = 142, pooled phase I): 1.4% | Photopsia, % of subjects with drug-related TEAE ([2]; n = 142, pooled phase I): 0.7% | Pigmentation disorder, % of subjects with drug-related TEAE ([2]; n = 142, pooled phase I): 0.7% | Psychiatric disorders, % of subjects with drug-related TEAE ([2]; n = 142, pooled phase I): 1.4% | Respiratory, thoracic and mediastinal disorders, % of subjects with drug-related TEAE ([2]; n = 142, pooled phase I): 0.7% | Sensation of foreign body, % of subjects with drug-related TEAE ([2]; n = 142, pooled phase I): 0.7% | Skin and subcutaneous tissue disorders, % of subjects with drug-related TEAE ([2]; n = 142, pooled phase I): 0.7% | Somnolence, % of subjects with drug-related TEAE ([2]; n = 142, pooled phase I): 0.7% | Vision blurred, % of subjects with drug-related TEAE ([2]; n = 142, pooled phase I): 4.9% | Visual acuity reduced, % of subjects with drug-related TEAE ([2]; n = 142, pooled phase I): 0.7% | Visual impairment, % of subjects with drug-related TEAE ([2]; n = 142, pooled phase I): 9.2% | Vomiting, % of subjects with drug-related TEAE ([2]; n = 142, pooled phase I): 0.7% | Subjects with drug-related TEAEs, % ([2]; n = 142, pooled phase I, oral 1–40 mg): 21.8% | Abdominal pain, subjects experiencing drug-related TEAE ([2]; of n = 142, pooled phase I): 1 | Balance disorder, subjects experiencing drug-related TEAE ([2]; of n = 142, pooled phase I): 1 | Cough, subjects experiencing drug-related TEAE ([2]; of n = 142, pooled phase I): 1 | Disorientation, subjects experiencing drug-related TEAE ([2]; of n = 142, pooled phase I): 1 | Disturbance in attention, subjects experiencing drug-related TEAE ([2]; of n = 142, pooled phase I): 1 | Euphoric mood, subjects experiencing drug-related TEAE ([2]; of n = 142, pooled phase I): 2 | Eye disorders, subjects experiencing drug-related TEAE ([2]; of n = 142, pooled phase I): 20 | Eye pain, subjects experiencing drug-related TEAE ([2]; of n = 142, pooled phase I): 1 | Feeling of relaxation, subjects experiencing drug-related TEAE ([2]; of n = 142, pooled phase I): 3 | Gastrointestinal disorders, subjects experiencing drug-related TEAE ([2]; of n = 142, pooled phase I): 4 | General disorders and administration site conditions, subjects experiencing drug-related TEAE ([2]; of n = 142, pooled phase I): 1 | Headache, subjects experiencing drug-related TEAE ([2]; of n = 142, pooled phase I): 6 | Hypervigilance, subjects experiencing drug-related TEAE ([2]; of n = 142, pooled phase I): 1 | Muscle spasms, subjects experiencing drug-related TEAE ([2]; of n = 142, pooled phase I): 1 | Musculoskeletal and connective tissue disorders, subjects experiencing drug-related TEAE ([2]; of n = 142, pooled phase I): 1 | Nausea, subjects experiencing drug-related TEAE ([2]; of n = 142, pooled phase I): 3 | Nervous system disorders, subjects experiencing drug-related TEAE ([2]; of n = 142, pooled phase I): 18 | Nervousness, subjects experiencing drug-related TEAE ([2]; of n = 142, pooled phase I): 1 | Oropharyngeal pain, subjects experiencing drug-related TEAE ([2]; of n = 142, pooled phase I): 1 | Paraesthesia oral, subjects experiencing drug-related TEAE ([2]; of n = 142, pooled phase I): 1 | Photophobia, subjects experiencing drug-related TEAE ([2]; of n = 142, pooled phase I): 2 | Photopsia, subjects experiencing drug-related TEAE ([2]; of n = 142, pooled phase I): 1 | Pigmentation disorder, subjects experiencing drug-related TEAE ([2]; of n = 142, pooled phase I): 1 | Psychiatric disorders, subjects experiencing drug-related TEAE ([2]; of n = 142, pooled phase I): 2 | Respiratory, thoracic and mediastinal disorders, subjects experiencing drug-related TEAE ([2]; of n = 142, pooled phase I): 1 | Sensation of foreign body, subjects experiencing drug-related TEAE ([2]; of n = 142, pooled phase I): 1 | Skin and subcutaneous tissue disorders, subjects experiencing drug-related TEAE ([2]; of n = 142, pooled phase I): 1 | Somnolence, subjects experiencing drug-related TEAE ([2]; of n = 142, pooled phase I): 1 | Vision blurred, subjects experiencing drug-related TEAE ([2]; of n = 142, pooled phase I): 7 | Visual acuity reduced, subjects experiencing drug-related TEAE ([2]; of n = 142, pooled phase I): 1 | Visual impairment, subjects experiencing drug-related TEAE ([2]; of n = 142, pooled phase I): 13 | Vomiting, subjects experiencing drug-related TEAE ([2]; of n = 142, pooled phase I): 1 | Subjects with both eye disorders and nervous system disorders ([2]; of the 27 subjects with TEAE of interest): 41% | Subjects with drug-related TEAEs of interest (eye disorders and nervous system disorders), number ([2]; out of 142 subjects): 27 | Subjects with drug-related TEAEs, number ([2]; out of 142 subjects): 31 | Incidence of non drug-related infections and infestations, active treatment arms ([2]; vs. 0% placebo, p=0.13 (two-sided Fisher's exact test)): 10.5% | Venous plasma–DBS scaling factor, population estimate (%RSE) ([3]; DBS concentration as % of venous plasma concentration, DBS from 12 subjects): 61.8 (2.9) % | Vc/F, population estimate (%RSE) ([3]; central volume of distribution, oral, 75 kg adult, n = 142): 52.4 (3.4) L | Maximum difference in MTT between the lowest and the highest dose ([3]; dose range 1–40 mg, 0.012–0.667 mg per kg body weight per day): 70% | Q1/F, population estimate (%RSE) [3, 6]: 4.60 (5.1) L/h | Q2/F, population estimate (%RSE) [3, 6]: 8.45 (2.9) L/h | Dose on MTT, population estimate (%RSE) ([3]; linear, dose range 1–40 mg): 105 (22.3) % per mg /kg/day | CL/F ([3]; male, human, in vivo, po): 21.5 mL/min | MTT, population estimate (%RSE) ([3]; mean absorption transit time, oral, reference LSF solution, fasted, 75 kg adult, n = 142 healthy male subjects): 0.488 (3.5) h | Dose on MTT, bootstrapping median (95% CI) ([3]; nonparametric bootstrap): 104.5 (62.9–154) % per mg /kg/day | Venous plasma–DBS scaling factor, bootstrapping median (95% CI) ([3]; nonparametric bootstrap): 61.8 (58.2–65.2) % | MTT, bootstrapping median (95% CI) ([3]; nonparametric bootstrap, 860 successful runs of 1,000, 75 kg adult): 0.489 (0.456–0.521) h | CL/F, bootstrapping median (95% CI) [3, 7]: 1.29 (1.18–1.40) L/h | Q1/F, bootstrapping median (95% CI) [3, 7]: 4.60 (4.14–5.04) L/h | Q2/F, bootstrapping median (95% CI) [3, 7]: 8.43 (7.97–8.87) L/h | Vc/F, bootstrapping median (95% CI) [3, 7]: 52.4 (49.2–55.8) L | Vp1 / F, bootstrapping median (95% CI) [3, 7]: 45.1 (38.0–53.4) L | Vp2/F, bootstrapping median (95% CI) [3, 7]: 647 (592–707) L | Dose proportionality of exposure ([3]; present study population, 1–40 mg): dose-proportional | Food intake on MTT, population estimate (%RSE) ([3]; reference: fasted state): 114 (22.6) % | Reduction in F when the dose was given together with food ([3]; reference: fasted state): 24.4% | Food intake on MTT, bootstrapping median (95% CI) ([3]; reference: fasted state, nonparametric bootstrap): 114.7 (69.0–168) % | Vp1 / F, population estimate (%RSE) ([3]; volume of distribution of peripheral compartment 1, oral, 75 kg adult, n = 142): 44.4 (8.7) L | Vp2/F, population estimate (%RSE) ([3]; volume of distribution of peripheral compartment 2, oral, 75 kg adult, n = 142): 647 (4.5) L | Terminal half-life [4]: > 20 days | Slope of linear regression, DBS concentration vs. plasma concentration [5]: 0.605
